Source: PubChem BioAssay AID2060887 (Molecular Pharmacology Branch, DTP, NCI, 2025)
Blank lines part the entries; values can stand above or below the molecule they belong to.

Test system: 782815-120-R-J1-PDC complex spheroid viability
Assay: Anticancer human tumor 782815-120-R-J1-PDC patient-derived colon adenocarcinoma cell line growth inhibition [RAS]
Settings: for IC50: curve of first compound; for viability, T/C: stronger effect = lower value
Text: RAS pathway inhibitors in Combinations in Complex Spheroids
A high-throughput screen of multi-cell type tumor spheroids was designed to identify active combinations of RAS pathway inhibitors and targeted small molecules. Complex spheroids include a stromal component modeled by human endothelial cells (HUVEC) and fibroblasts modeled by human mesenchymal stem cells (MSCs). The concentration ranges selected for each drug and investigational agent were based upon clinically achievable concentrations if the clinical Cmax of the agent was known.
Compounds. The drugs and investigational agents: abemaciclib (NSC768073), cobimetinib (NSC768068), divarasib (GDC6063, NSC841802), docetaxel (NSC628503), GDC-1971 (RLY-1971, NSC841576), gemcitabine (NSC613327), inavolisib (NSC800729), ipatasertib (NSC767898), KB-0742 (NSC834161), MRTX-1133 (NSC836407), osimertinib (NSC779217), RMC-4630 (NSC839698), RMC-6236 (NSC851965), RMC-6291 (NSC852671), Ro-3306 (NSC812927), sapanisertib (NSC764658), SN-38 (NSC673596), staurosporine (NSC755774), SY5609 (NSC837396), and tovorafenib (DAY101, NSC766906), were obtained from the National Cancer Institute (NCI) Developmental Therapeutics Program Chemical Repository. The FDA-approved anticancer drug set is available from the NCI Developmental Therapeutics Program. […] The stock solutions were prepared in dimethyl sulfoxide (DMSO, Sigma-Aldrich, St. Louis, MO, cat. D2650) at 800-fold the tested concentration and stored at -70 degrees C prior to their use. All drugs and investigational agents were tested over a range starting from a high concentration at or near the clinical Cmax and decreasing in half-log increments. If the clinical Cmax for an agent had not been determined, the highest concentration tested was 10 microM.
Cell Culture. All cells were maintained in an incubator at 37 degrees C and 5% CO2 with 95% humidity. The PDC lines were cultured according to standard operating procedures established by the NCI PDMR. All PDCs were thawed and cultured in Matrigel-coated flasks prepared with a working solution of 1X Ham's F-12 nutrient mix, without supplementation (Invitrogen, Waltham, MA, cat. 11765054), 100 U/mL penicillin-streptomycin (Invitrogen, cat. 15140122), and 2.5% Matrigel (Corning Inc., Corning, NY, cat. 354248) for the first three passages. The 362531-283-R-J2-PDC and 782815-120-R-J1-PDC lines were cultured in 6C/Colon 1B media, which includes advanced DMEM/F-12 (Thermo Fisher Scientific, cat. 12634028), 10 mM HEPES (Thermo Fisher Scientific, cat. 15630080), 1X GlutaMAX supplement (Thermo Fisher Scientific, cat. 35050061), 0.1 mg/mL primocin (InvivoGen, San Diego, CA, cat. ant-pm-2), 10% defined fetal bovine serum, heat inactivated (HyClone Laboratories Inc., Logan, UT, cat. SH30070.03HI), 50% L-WRN conditioned media (ATCC, cat. CRL-3276), 1.25 mM N-Acetyl-L-cysteine (Sigma-Aldrich, cat. A9165), 10 mM nicotinamide (Sigma-Aldrich, cat. N0636), 1X B-27 supplement (Thermo Fisher Scientific, cat. 17504044), 1X N-2 supplement (Thermo Fisher Scientific, cat. 17502048), 50 ng/mL human EGF (Thermo Fisher Scientific, cat. PHG0311), and 10 microM Y-27632 dihydrochloride (Tocris Bioscience, cat. 1254). The K12877-001-R-J1-PDC line was cultured in 6I media, which includes all 6C/Colon 1B media plus 10 ng/mL human FGF-10 (PeproTech, cat. 100-26), 1 ng/mL human FGF-2 (PeproTech, cat. 100-18B), 1 µM prostaglandin E2 (Tocris Bioscience, cat. 2296), […] hydrocortisone (Sigma-Aldrich, cat. H4001), and […] bovine insulin (Sigma-Aldrich, cat. I6634). The K86415-001-R-J1-PDC line was cultured in 6D media, which includes all 6C/Colon 1B media components minus the L-WRN conditioned media. The 485176-168-R4-J1-PDC was cultured in PANC media, which includes all 6C/Colon 1B media plus 100 ng/mL human FGF-10 (PeproTech, cat. 100-26), 500 nM SB-431542 (Selleckchem, cat. S1067), and 10 nM gastrin (Tocris Bioscience, cat. 3006). […]
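Also: spheroids exposed to compounds for 7 days before reading.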
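For viability, T/C in this document: 100% = DMSO vehicle control viability.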

IC50 (second compound 0.000949 µM): 47.7 nM
IC50 (second compound 0.003 µM): 53.4 nM
IC50 (second compound 0.00949 µM): 45.5 nM
IC50 (second compound 0.03 µM): 51.9 nM
IC50 (second compound 0.0949 µM): 46.1 nM
IC50 (second compound 0.3 µM): 40.6 nM
SMILES: O=C(c1ccc(F)c(F)c1Nc1ccc(I)cc1F)N1CC(O)([C@@H]2CCCCN2)C1 + CCn1c(-c2cccnc2C(C)OC)c2c3cc(ccc31)N1CCOC(CC(NC(=O)C(C(C)C)N(C)C(=O)C3(F)CCN(C(=O)C#CC(C)(C)N(C)C)CC3)C(=O)N3CCCC(N3)C(=O)OCC(C)(C)C2)C1
viability, T/C (second compound 0.000949 µM, first compound 0.00316 µM): 91.2%
viability, T/C (second compound 0.000949 µM, first compound 0.01 µM): 74.1%
viability, T/C (second compound 0.000949 µM, first compound 0.0316 µM): 60%
viability, T/C (second compound 0.000949 µM, first compound 0.1 µM): 35.2%
viability, T/C (second compound 0.000949 µM, first compound 0.316 µM): 17%
viability, T/C (second compound 0.000949 µM, first compound 1 µM): 1.9%
viability, T/C (second compound 0.003 µM, first compound 0.00316 µM): 85.9%
viability, T/C (second compound 0.003 µM, first compound 0.01 µM): 73.5%
viability, T/C (second compound 0.003 µM, first compound 0.0316 µM): 60.6%
viability, T/C (second compound 0.003 µM, first compound 0.1 µM): 39.1%
viability, T/C (second compound 0.003 µM, first compound 0.316 µM): 16.4%
viability, T/C (second compound 0.003 µM, first compound 1 µM): 2.12%
viability, T/C (second compound 0.00949 µM, first compound 0.00316 µM): 88%
viability, T/C (second compound 0.00949 µM, first compound 0.01 µM): 74.6%
viability, T/C (second compound 0.00949 µM, first compound 0.0316 µM): 57.7%
viability, T/C (second compound 0.00949 µM, first compound 0.1 µM): 34.5%
viability, T/C (second compound 0.00949 µM, first compound 0.316 µM): 15.9%
viability, T/C (second compound 0.00949 µM, first compound 1 µM): 1.1%
viability, T/C (second compound 0.03 µM, first compound 0.00316 µM): 79.2%
viability, T/C (second compound 0.03 µM, first compound 0.01 µM): 86.5%
viability, T/C (second compound 0.03 µM, first compound 0.0316 µM): 55.3%
viability, T/C (second compound 0.03 µM, first compound 0.1 µM): 36.6%
viability, T/C (second compound 0.03 µM, first compound 0.316 µM): 14.8%
viability, T/C (second compound 0.03 µM, first compound 1 µM): 1.32%
viability, T/C (second compound 0.0949 µM, first compound 0.00316 µM): 78.3%
viability, T/C (second compound 0.0949 µM, first compound 0.01 µM): 73.4%
viability, T/C (second compound 0.0949 µM, first compound 0.0316 µM): 55.4%
viability, T/C (second compound 0.0949 µM, first compound 0.1 µM): 36.5%
viability, T/C (second compound 0.0949 µM, first compound 0.316 µM): 16.3%
viability, T/C (second compound 0.0949 µM, first compound 1 µM): 3.86%
viability, T/C (second compound 0.3 µM, first compound 0.00316 µM): 81.3%
viability, T/C (second compound 0.3 µM, first compound 0.01 µM): 66.4%
viability, T/C (second compound 0.3 µM, first compound 0.0316 µM): 56.3%
viability, T/C (second compound 0.3 µM, first compound 0.1 µM): 35.5%
viability, T/C (second compound 0.3 µM, first compound 0.316 µM): 14.2%
viability, T/C (second compound 0.3 µM, first compound 1 µM): 0.95%

IC50 (second compound 0.0316 µM): > 100 nM
IC50 (second compound 0.1 µM): > 100 nM
IC50 (second compound 0.316 µM): > 100 nM
IC50 (second compound 1 µM): > 100 nM
IC50 (second compound 3.16 µM): > 100 nM
IC50 (second compound 10 µM): > 100 nM
SMILES: CC(C)n1nc(-c2ccc3oc(N)nc3c2)c2c(N)ncnc21 + C#Cc1c(F)ccc2cc(O)cc(-c3ncc4c(N5CC6CCC(C5)N6)nc(OCC56CCCN5CC(F)C6)nc4c3F)c12
viability, T/C (second compound 0.0316 µM, first compound 0.000316 µM): 97%
viability, T/C (second compound 0.0316 µM, first compound 0.001 µM): 100%
viability, T/C (second compound 0.0316 µM, first compound 0.00316 µM): 105%
viability, T/C (second compound 0.0316 µM, first compound 0.01 µM): 98.1%
viability, T/C (second compound 0.0316 µM, first compound 0.0316 µM): 91.8%
viability, T/C (second compound 0.0316 µM, first compound 0.1 µM): 85.2%
viability, T/C (second compound 0.1 µM, first compound 0.000316 µM): 99.1%
viability, T/C (second compound 0.1 µM, first compound 0.001 µM): 91.4%
viability, T/C (second compound 0.1 µM, first compound 0.00316 µM): 101%
viability, T/C (second compound 0.1 µM, first compound 0.01 µM): 89.6%
viability, T/C (second compound 0.1 µM, first compound 0.0316 µM): 97%
viability, T/C (second compound 0.1 µM, first compound 0.1 µM): 81.6%
viability, T/C (second compound 0.316 µM, first compound 0.000316 µM): 96.6%
viability, T/C (second compound 0.316 µM, first compound 0.001 µM): 105%
viability, T/C (second compound 0.316 µM, first compound 0.00316 µM): 94.5%
viability, T/C (second compound 0.316 µM, first compound 0.01 µM): 108%
viability, T/C (second compound 0.316 µM, first compound 0.0316 µM): 88.1%
viability, T/C (second compound 0.316 µM, first compound 0.1 µM): 84.1%
viability, T/C (second compound 1 µM, first compound 0.000316 µM): 99.7%
viability, T/C (second compound 1 µM, first compound 0.001 µM): 101%
viability, T/C (second compound 1 µM, first compound 0.00316 µM): 88.6%
viability, T/C (second compound 1 µM, first compound 0.01 µM): 105%
viability, T/C (second compound 1 µM, first compound 0.0316 µM): 93.7%
viability, T/C (second compound 1 µM, first compound 0.1 µM): 83.8%
viability, T/C (second compound 3.16 µM, first compound 0.000316 µM): 98.7%
viability, T/C (second compound 3.16 µM, first compound 0.001 µM): 101%
viability, T/C (second compound 3.16 µM, first compound 0.00316 µM): 93.5%
viability, T/C (second compound 3.16 µM, first compound 0.01 µM): 92.6%
viability, T/C (second compound 3.16 µM, first compound 0.0316 µM): 92.1%
viability, T/C (second compound 3.16 µM, first compound 0.1 µM): 84.4%
viability, T/C (second compound 10 µM, first compound 0.000316 µM): 101%
viability, T/C (second compound 10 µM, first compound 0.001 µM): 95.3%
viability, T/C (second compound 10 µM, first compound 0.00316 µM): 85.3%
viability, T/C (second compound 10 µM, first compound 0.01 µM): 92.8%
viability, T/C (second compound 10 µM, first compound 0.0316 µM): 88.8%
viability, T/C (second compound 10 µM, first compound 0.1 µM): 74.7%
